Experimental data published in ChEMBL document CHEMBL5120925, “Antagonistic Effect and In Vitro Activity of Dauricine on Glucagon Receptor” (J Nat Prod, 2022).
The source made the active and inactive calls. The calls are words filed in the database; no cut-off is given here.

Assays:
[1] = molecular target: Glucagon receptor (Homo sapiens) (UniProt P47871); test: Antagonist activity at […] (unknown origin) expressed in HEK293 cells assessed as inhibition of GCG binding by measuring increase in fluorescence intensity at 0.1 mM incubated for 30 to 40 mins by FLUO-4 AM based inverted fluorescence microscopic imaging analysis; format: functional, cell-based; conditions: filed as antagonist, time 30-40 min
[2] = Cytotoxicity against HEK293 cells assessed as inhibition of cell growth incubated for 24 hrs by MTT assay; format: toxicity, cell-based; conditions: human
[3] = molecular target: Glucagon receptor (Homo sapiens) (UniProt P47871); test: Antagonist activity at GCGR (unknown origin) expressed in HEK293 cells assessed as inhibition of GCG binding by measuring increase in fluorescence intensity at 10 uM incubated for 30 to 40 mins by FLUO-4 AM fluorescence based flow cytometric analysis; format: functional, cell-based; conditions: filed as antagonist, time 30-40 min

Glucagon receptor (Homo sapiens), sequence (P47871 whole entry): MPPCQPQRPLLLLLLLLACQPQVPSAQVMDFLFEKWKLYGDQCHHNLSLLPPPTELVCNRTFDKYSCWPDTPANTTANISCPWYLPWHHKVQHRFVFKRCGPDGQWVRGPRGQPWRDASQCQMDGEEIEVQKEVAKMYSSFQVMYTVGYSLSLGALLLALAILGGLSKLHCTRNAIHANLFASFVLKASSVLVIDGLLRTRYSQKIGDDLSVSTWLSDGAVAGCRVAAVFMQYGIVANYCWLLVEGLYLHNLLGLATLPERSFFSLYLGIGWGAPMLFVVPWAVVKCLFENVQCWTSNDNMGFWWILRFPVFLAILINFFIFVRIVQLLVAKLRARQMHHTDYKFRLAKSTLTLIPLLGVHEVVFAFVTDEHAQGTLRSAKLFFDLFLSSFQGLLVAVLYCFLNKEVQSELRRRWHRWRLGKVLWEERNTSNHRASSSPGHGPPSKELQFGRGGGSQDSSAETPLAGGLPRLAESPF

Molecule	Activity [1]	IC50 at 24 h [2] [µM]	Activity [3]
H-SQGTFTSEYSKYLDSRRAQDFVQWL-NH2	Active	–	–
COc1cc2c(cc1OC)[C@@H](Cc1ccc(Oc3cc(C[C@H]4c5cc(OC)c(OC)cc5CCN4C)ccc3O)cc1)N(C)CC2	–	10.6	Active
